Source: patent US12643886B2 (Ontario Institute for Cancer Research (OICR), priority 2021, dated 2026)

Legend:
Format in all cases: biochemical
NUAK1 = biological target: T1, NUAK1 (Homo sapiens, UniProt O60285); assay: Counter-screen against NUAK1
T1 sequence (O60285 1-661): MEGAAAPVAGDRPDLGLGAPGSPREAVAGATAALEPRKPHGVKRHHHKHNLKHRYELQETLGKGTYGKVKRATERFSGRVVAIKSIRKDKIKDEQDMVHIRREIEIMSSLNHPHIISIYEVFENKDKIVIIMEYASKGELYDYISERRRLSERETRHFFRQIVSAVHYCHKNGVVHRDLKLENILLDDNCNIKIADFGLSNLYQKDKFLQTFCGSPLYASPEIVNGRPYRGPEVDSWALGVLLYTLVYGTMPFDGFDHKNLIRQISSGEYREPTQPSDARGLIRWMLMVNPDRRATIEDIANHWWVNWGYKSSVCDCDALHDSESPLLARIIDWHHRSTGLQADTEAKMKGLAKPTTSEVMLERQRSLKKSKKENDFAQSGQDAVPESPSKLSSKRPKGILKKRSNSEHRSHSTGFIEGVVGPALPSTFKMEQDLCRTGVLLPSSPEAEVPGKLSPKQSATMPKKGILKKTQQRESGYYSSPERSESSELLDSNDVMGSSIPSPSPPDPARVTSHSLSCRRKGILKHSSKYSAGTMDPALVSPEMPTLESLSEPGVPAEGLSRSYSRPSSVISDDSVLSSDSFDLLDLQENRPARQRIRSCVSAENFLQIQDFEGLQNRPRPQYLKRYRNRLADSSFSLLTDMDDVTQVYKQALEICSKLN
Protocol: (§1) To identify small molecule NUAK inhibitors, a biochemical NUAK2 enzymatic assay were outsourced to Eurofins. This assay was done radiometrically using full-length, recombinant enzyme. NUAK2 (h) was incubated with 8 mM MOPS pH 7.0, 0.2 mM EDTA, 300 μM […], 10 mM magnesium acetate and […] (specific activity and concentration as required). The reaction was initiated by the addition of the Mg/ATP mix. After incubation for 40 minutes at room temperature, the reaction was stopped by the addition of phosphoric acid to a concentration of 0.5%. 10 μL of the reaction was then spotted onto a P30 filtermat and washed four times for 4 minutes in 0.425% phosphoric acid and once in methanol prior to drying and scintillation counting. Compounds were routinely counter-screened against Aurora A and NUAK1. The results are shown in Table 1 where IC50's are reported in the following ranges: A: 0.1-10 nM; B: 11-100 nM; C: 101-1000 nM; D: >1000 nM for the compounds of Formula (I)

NUAK2 (h) = biological target: T2, NUAK2 (h) (Homo sapiens, UniProt Q9H093); assay: NUAK2 enzymatic assay (radiometric, Eurofins); conditions: full-length recombinant enzyme
T2 construct: This assay was done radiometrically using full-length, recombinant enzyme; purchased Eurofins
T2 sequence (Q9H093 1-628): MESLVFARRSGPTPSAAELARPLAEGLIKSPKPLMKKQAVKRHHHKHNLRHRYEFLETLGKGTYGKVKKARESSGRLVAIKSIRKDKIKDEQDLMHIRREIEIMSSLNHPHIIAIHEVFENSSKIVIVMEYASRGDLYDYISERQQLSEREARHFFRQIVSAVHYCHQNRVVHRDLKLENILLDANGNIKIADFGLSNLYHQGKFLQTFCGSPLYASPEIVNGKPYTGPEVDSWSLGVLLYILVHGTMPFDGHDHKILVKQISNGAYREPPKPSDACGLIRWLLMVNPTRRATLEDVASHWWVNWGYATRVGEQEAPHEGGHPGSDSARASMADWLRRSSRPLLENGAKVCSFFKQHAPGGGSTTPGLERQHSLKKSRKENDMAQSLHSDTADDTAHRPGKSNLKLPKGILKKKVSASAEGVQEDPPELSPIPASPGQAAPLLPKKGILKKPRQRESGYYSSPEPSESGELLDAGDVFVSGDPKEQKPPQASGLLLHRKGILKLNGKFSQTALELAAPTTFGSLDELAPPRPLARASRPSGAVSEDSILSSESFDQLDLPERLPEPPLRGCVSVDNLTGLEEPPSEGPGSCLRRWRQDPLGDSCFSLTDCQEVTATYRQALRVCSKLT
Protocol: as §1

Aurora A = biological target: T3, Aurora A (Homo sapiens, UniProt O14965); assay: Counter-screen against Aurora A; conditions: read-out: AUR-A (IC50)
T3 sequence (O14965 1-403): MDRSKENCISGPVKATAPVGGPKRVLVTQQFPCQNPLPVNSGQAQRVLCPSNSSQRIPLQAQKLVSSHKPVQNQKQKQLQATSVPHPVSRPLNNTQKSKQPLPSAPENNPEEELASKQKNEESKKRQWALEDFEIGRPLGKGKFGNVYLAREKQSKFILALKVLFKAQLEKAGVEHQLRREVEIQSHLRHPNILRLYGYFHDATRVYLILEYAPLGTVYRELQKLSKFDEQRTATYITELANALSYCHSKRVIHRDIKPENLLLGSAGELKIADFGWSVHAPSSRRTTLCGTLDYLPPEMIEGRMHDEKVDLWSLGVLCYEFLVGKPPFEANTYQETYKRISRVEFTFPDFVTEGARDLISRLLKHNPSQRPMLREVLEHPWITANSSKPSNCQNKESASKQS
Protocol: as §1

IC50 (NUAK1) [nM] | IC50 (NUAK2 (h)) [nM] | IC50 (Aurora A) [nM] | Compound
11 to 100 | 0.1 to 10 | 101 to 1000 | CN1CCN(c2ccc(Nc3ncc(Cl)c(Nc4cccc5c4C(=O)NC5)n3)c(OC(F)F)c2)CC1 [Compound I-1, 7-((5-chloro-2-((2-(difluoromethoxy)-4-(4-methylpiperazin-1-yl)phenyl)amino)pyrimidin-4-yl)amino)isoindolin-1-one]
0.1 to 10 | 11 to 100 | 0.1 to 10 | CCN1CCN(c2ccc(Nc3nccc(Nc4cccc5c4C(=O)NC5)n3)cc2F)CC1 [Compound I-2, 7-((2-((4-(4-ethylpiperazin-1-yl)-3-fluorophenyl)amino)pyrimidin-4-yl)amino)isoindolin-1-one]
101 to 1000 | 11 to 100 | 101 to 1000 | COc1cc2c(cc1Nc1ncc(Cl)c(Nc3cccc4c3C(=O)NC4)n1)CN(C)CC2 [Compound I-3, 7-((5-chloro-2-((6-methoxy-2-methyl-1,2,3,4-tetrahydroisoquinolin-7-yl)amino)pyrimidin-4-yl)amino)isoindolin-1-one]
11 to 100 | 0.1 to 10 | 0.1 to 10 | CCN1CCN(c2ccc(Nc3ncc(Cl)c(Nc4cccc5c4C(=O)NC5)n3)cc2F)CC1 [Compound I-4, 7-((5-chloro-2-((4-(4-ethylpiperazin-1-yl)-3-fluorophenyl)amino)pyrimidin-4-yl)amino)isoindolin-1-one]
11 to 100 | 0.1 to 10 | 11 to 100 | COc1cc(N2CCN(C)CC2)ccc1Nc1ncc(Cl)c(Nc2cccc3c2C(=O)NC3)n1 [Compound I-5, 7-((5-chloro-2-((2-methoxy-4-(4-methylpiperazin-1-yl)phenyl)amino)pyrimidin-4-yl)amino)isoindolin-1-one]
11 to 100 | 11 to 100 | 101 to 1000 | COc1c(Nc2ncc(Cl)c(Nc3cccc4c3C(=O)NC4)n2)ccc(N2CCN3CCCC3C2)c1F (stereo not shown) [Compound I-6, 7-((5-chloro-2-((3-fluoro-4-(hexahydropyrrolo[1,2-a]pyrazin-2(1H)-yl)-2-methoxyphenyl)amino)pyrimidin-4-yl)amino)isoindolin-1-one]
11 to 100 | 11 to 100 | 101 to 1000 | COc1c(Nc2ncc(Cl)c(Nc3cccc4c3C(=O)NC4)n2)ccc(N2CCC(N3CCN(C)CC3)CC2)c1F [Compound I-7, 7-((5-chloro-2-((3-fluoro-2-methoxy-4-(4-(4-methylpiperazin-1-yl)piperidin-1-yl)phenyl)amino)pyrimidin-4-yl)amino)isoindolin-1-one]
101 to 1000 | 11 to 100 | 101 to 1000 | CN1CCN(c2ccc(Nc3ncc(Cl)c(Nc4cccc5c4C(=O)NC5)n3)c(C(F)(F)F)c2)CC1 [Compound I-8, 7-((5-chloro-2-((4-(4-methylpiperazin-1-yl)-2-(trifluoromethyl)phenyl)amino)pyrimidin-4-yl)amino)isoindolin-1-one]
11 to 100 | 0.1 to 10 | 101 to 1000 | CN1CCN(C2CCN(c3ccc(Nc4ncc(Cl)c(Nc5cccc6c5C(=O)NC6)n4)c(OC(F)F)c3)CC2)CC1 [Compound I-9, 7-((5-chloro-2-((2-(difluoromethoxy)-4-(4-(4-methylpiperazin-1-yl)piperidin-1-yl)phenyl)amino)pyrimidin-4-yl)amino)isoindolin-1-one]
0.1 to 10 | 0.1 to 10 | 0.1 to 10 | CN1CCc2ccc(Nc3ncc(Cl)c(Nc4cccc5c4C(=O)NC5)n3)cc2C1 [Compound I-10, 7-((5-chloro-2-((2-methyl-1,2,3,4-tetrahydroisoquinolin-7-yl)amino)pyrimidin-4-yl)amino)isoindolin-1-one]
> 1000 | 101 to 1000 | > 1000 | CC(C)Oc1cc(N2CCN(C)CC2)ccc1Nc1ncc(Cl)c(Nc2cccc3c2C(=O)NC3)n1 [Compound I-11, 7-((5-chloro-2-((2-isopropoxy-4-(4-methylpiperazin-1-yl)phenyl)amino)pyrimidin-4-yl)amino)isoindolin-1-one]
11 to 100 | 0.1 to 10 | > 1000 | COc1cc2c(cc1Nc1ncc(Cl)c(Nc3cccc4c3C(=O)NC4)n1)CCN(C)C2 [Compound I-12, 7-((5-chloro-2-((7-methoxy-2-methyl-1,2,3,4-tetrahydroisoquinolin-6-yl)amino)pyrimidin-4-yl)amino)isoindolin-1-one]
11 to 100 | 0.1 to 10 | 11 to 100 | COc1nc(N2CCC(N3CCN(C)CC3)CC2)ccc1Nc1ncc(Cl)c(Nc2cccc3c2C(=O)NC3)n1 [Compound I-13, 7-((5-chloro-2-((2-methoxy-6-(4-(4-methylpiperazin-1-yl)piperidin-1-yl)pyridin-3-yl)amino)pyrimidin-4-yl)amino)isoindolin-1-one]
0.1 to 10 | 11 to 100 | 11 to 100 | COc1nc(N2CCN(C)CC2)ccc1Nc1ncc(Cl)c(Nc2cccc3c2C(=O)NC3)n1 [Compound I-14, 7-((5-chloro-2-((2-methoxy-6-(4-methylpiperazin-1-yl)pyridin-3-yl)amino)pyrimidin-4-yl)amino)isoindolin-1-one]
11 to 100 | 11 to 100 | 101 to 1000 | Cc1c(N2CCN(C)CC2)ccc(Nc2ncc(Cl)c(Nc3cccc4c3C(=O)NC4)n2)c1Cl [Compound I-15, 7-((5-chloro-2-((2-chloro-3-methyl-4-(4-methylpiperazin-1-yl)phenyl)amino)pyrimidin-4-yl)amino)isoindolin-1-one]
11 to 100 | 11 to 100 | > 1000 | COc1cc2c(cc1Nc1ncc(Cl)c(Nc3cccc4c3C(=O)NC4)n1)CN(C)CC2(C)C [Compound I-16, 7-((5-chloro-2-((6-methoxy-2,4,4-trimethyl-1,2,3,4-tetrahydroisoquinolin-7-yl)amino)pyrimidin-4-yl)amino)isoindolin-1-one]
11 to 100 | 11 to 100 | > 1000 | COc1cc2c(cc1Nc1ncc(Cl)c(Nc3cccc4c3C(=O)NC4)n1)CCNC2 [Compound I-17, 7-((5-chloro-2-((7-methoxy-1,2,3,4-tetrahydroisoquinolin-6-yl)amino)pyrimidin-4-yl)amino)isoindolin-1-one]
– | 0.1 to 10 | > 1000 | CN1CCN(c2ccc(Nc3ncc(Cl)c(Nc4ccc(F)c5c4C(=O)NC5)n3)c(OC(F)F)c2)CC1 [Compound I-84, 7-((5-chloro-2-((2-(difluoromethoxy)-4-(4-methylpiperazin-1-yl)phenyl)amino)pyrimidin-4-yl)amino)-4-fluoroisoindolin-1-one]
– | 11 to 100 | > 1000 | COc1cc(CN(C)C)ccc1Nc1ncc(Cl)c(Nc2ccc(F)c3c2C(=O)NC3)n1 [Compound I-85, 7-((5-chloro-2-((4-((dimethylamino)methyl)-2-methoxyphenyl)amino)pyrimidin-4-yl)amino)-4-fluoroisoindolin-1-one]
